# Data taken from US4505914A, “Pharmaceutical for the treatment of sleep disorders” (Merckle GmbH, priority 1982, dated 1985).
# Several values for one entry are separate records, joined by “and”; a condition that tells them apart may be missing. Identical values can stand only once.
# Legend:
# [1] = literature, in words; cited from earlier work
# tail and corneal reflex = assay: Optimum effect (tail and corneal reflex according to Irvin); format: in vivo, mouse; set-up: key to Optimum Reflex: 0: normal reaction; -1: slightly lessened; -2: clearly lessened; -3: highly lessened; -4: complete lack of reaction
# Experimental: (§1) As a criterium for the onset of the effect, the beginning of the excitation stage was measured. For the optimum effect, the beginning of the sleep phase was tested every 10 minutes by the tail and corneal reflex (according to Irvin) according to the following designations:
# -4 = complete lack of reaction
# (§2) Sleeping Time, Onset of Effect and Optium Effect under the influence of […]
# male NMR.tau. mice [2] = assay: Onset of effect (beginning of the excitation stage); format: in vivo, mouse
# Experimental: as §1, §2
# male NMR.tau. mice [3] = assay: Sleep duration, prolongation of sleeping time and ED50 under the influence of cinnarizine (Table 3); format: in vivo, mouse
# Source text: (§3) A typical representative from the group of barbiturates with long action (phenobarbital), with short to average action (cyclobarbital-calcium) as well as ultra short action (hexobarbital) as well as a combination of two barbiturates (cyclobarbital-calcium+hexobarbital) was applied orally in graduated doses.
# male NMRJ mice [4] = assay: Sleeping time prolongation under the influence of cinnarizine and flunarizine (ED50); format: in vivo, mouse; details: for Effect on the action of barbiturates: in words; for ED50: sleeping time increased by 50%
# Source text: as §3
# Determination of the sleeping time prolongation under the influence of […]
# [5] = in words; cited from earlier work
# male NMRJ mice [6] = assay: Determination of the oral ED50 of the barbiturates (sleep time); format: in vivo, mouse; details: for ED50: Mus musculus, 0.5 h, oral, dose required for a 30-minute sleeping period
# Source text: as §3
# Determination of the oral ED50 of
# the barbiturates using 10 male NMR.tau. mice/group
# [7] = literature, in words; cited from earlier work; remark: listed apart in the source
# [8] = cinnarizine 0.50 + hexobarbital 710 mg/kg
# [9] = cinnarizine 0.75 + hexobarbital 710 mg/kg
# [10] = cinnarizine 1.0 + cyclobarbital calcium 239 mg/kg
# [11] = cinnarizine 1.0 + cyclobarbital calcium + hexobarbital (40 + 30) 225 mg/kg
# [12] = cinnarizine 1.00 + hexobarbital 710 mg/kg
# [13] = cinnarizine 2.5 + cyclobarbital calcium 239 mg/kg
# [14] = cinnarizine 2.5 + cyclobarbital calcium + hexobarbital (40 + 30) 225 mg/kg
# [15] = cinnarizine 5.0 + cyclobarbital calcium 239 mg/kg
# [16] = cinnarizine 5.0 + cyclobarbital calcium + hexobarbital (40 + 30) 225 mg/kg
# [17] = cyclobarbital calcium 239 mg/kg alone (C)
# [18] = hexobarbital 710 mg/kg alone (C)
molecule,measurement,setting,value
tocopherol,Effect on barbiturates,[1],increases the effect of barbiturates
"C(=C\c1ccccc1)/CN1CCN(C(c2ccccc2)c2ccccc2)CC1 [Cinnarizine, 1-benzhydryl-4-trans-cinnamylpiperazine]",Optimum % of control,tail and corneal reflex; [8],278.2-336.0%
same,Optimum Min.,tail and corneal reflex; [8],10 to 30 min
same,Optimum Reflex,tail and corneal reflex; [8],-3
same,Optimum Min.,tail and corneal reflex; [9],10 to 20 min
same,Optimum Reflex,tail and corneal reflex; [9],-3
same,Optimum % of control,tail and corneal reflex; [10],166.7%
same,Optimum Min.,tail and corneal reflex; [10],10 min
same,Optimum Reflex,tail and corneal reflex; [10],-1
same,Optimum % of control,tail and corneal reflex; [11],156.3-183.3%
same,Optimum Min.,tail and corneal reflex; [11],10 to 20 min
same,Optimum Reflex,tail and corneal reflex; [11],-2
same,Optimum % of control,tail and corneal reflex; [12],300.8-407.0%
same,Optimum Min.,tail and corneal reflex; [12],10 to 30 min
same,Optimum Reflex,tail and corneal reflex; [12],-4
same,Optimum % of control,tail and corneal reflex; [13],350.0%
same,Optimum Min.,tail and corneal reflex; [13],10 to 30 min
same,Optimum Reflex,tail and corneal reflex; [13],-1
same,Optimum % of control,tail and corneal reflex; [14],138.8-177.5%
same,Optimum Min.,tail and corneal reflex; [14],10 to 20 min
same,Optimum Reflex,tail and corneal reflex; [14],-2
same,Optimum % of control,tail and corneal reflex; [15],350.0%
same,Optimum Min.,tail and corneal reflex; [15],10 min
same,Optimum Reflex,tail and corneal reflex; [15],-2
same,Optimum % of control,tail and corneal reflex; [16],175.0-233.0%
same,Optimum Min.,tail and corneal reflex; [16],10 to 40 min
same,Onset p.a. % of control,male NMR.tau. mice [2]; [8],86.2%
same,Onset x,male NMR.tau. mice [2]; [8],2.49 min
same,Onset p.a. % of control,male NMR.tau. mice [2]; [9],76.8%
same,Onset x,male NMR.tau. mice [2]; [9],2.22 min
same,Onset p.a. % of control,male NMR.tau. mice [2]; [10],51.3%
same,Onset x,male NMR.tau. mice [2]; [10],2.19 min
same,Onset p.a. % of control,male NMR.tau. mice [2]; [11],94.8%
same,Onset x,male NMR.tau. mice [2]; [11],1.09 min
same,Onset p.a. % of control,male NMR.tau. mice [2]; [12],55.0%
same,Onset x,male NMR.tau. mice [2]; [12],1.59 min
same,Onset p.a. % of control,male NMR.tau. mice [2]; [13],54.1%
same,Onset x,male NMR.tau. mice [2]; [13],2.31 min
same,Onset p.a. % of control,male NMR.tau. mice [2]; [14],102.6%
same,Onset x,male NMR.tau. mice [2]; [14],1.18 min
same,Onset p.a. % of control,male NMR.tau. mice [2]; [15],59.5%
same,Onset x,male NMR.tau. mice [2]; [15],2.54 min
same,Onset p.a. % of control,male NMR.tau. mice [2]; [16],102.6%
same,Onset x,male NMR.tau. mice [2]; [16],1.18 min
same,Sleep Time,male NMR.tau. mice [3]; [8],40.66 min
same,Sleep Time % of control,male NMR.tau. mice [3]; [8],113.4%
same,Sleep Time,male NMR.tau. mice [3]; [9],42.38 min
same,Sleep Time % of control,male NMR.tau. mice [3]; [9],118.2%
same,Sleep Time,male NMR.tau. mice [3]; [10],26.21 min
same,Sleep Time % of control,male NMR.tau. mice [3]; [10],106.4%
same,Sleep Time,male NMR.tau. mice [3]; [11],32.42 min
same,Sleep Time % of control,male NMR.tau. mice [3]; [11],92.6%
same,Sleep Time,male NMR.tau. mice [3]; [12],76.14 min
same,Sleep Time % of control,male NMR.tau. mice [3]; [12],212.3%
same,Sleep Time,male NMR.tau. mice [3]; [13],31.08 min
same,Sleep Time % of control,male NMR.tau. mice [3]; [13],126.1%
same,Sleep Time,male NMR.tau. mice [3]; [14],38.65 min
same,Sleep Time % of control,male NMR.tau. mice [3]; [14],110.4%
same,Sleep Time,male NMR.tau. mice [3]; [15],42.49 min
same,Sleep Time % of control,male NMR.tau. mice [3]; [15],172.4%
same,Sleep Time,male NMR.tau. mice [3]; [16],54.82 min
same,Sleep Time % of control,male NMR.tau. mice [3]; [16],156.6%
same,Sleep Time,male NMRJ mice [4]; cinnarizine 0.5 mg/kg + hexobarbital 710 mg/kg,35.37 min
same,Sleep Time,male NMRJ mice [4]; cinnarizine 1.0 mg/kg + cyclobarbital-Ca 239 mg/kg,24.34 min
same,Sleep Time,male NMRJ mice [4]; cinnarizine 1.0 mg/kg + cyclobarbital-Ca + hexobarbital (40 + 30) 225 mg/kg,31.09 min
same,Sleep Time,"male NMRJ mice [4]; cinnarizine 1.0 mg/kg + hexobarbital 710 mg/kg, **p <0.01",65.58 min
same,Sleep Time,male NMRJ mice [4]; cinnarizine 1 mg/kg + phenobarbital 256 mg/kg,25.78 min
same,Sleep Time,"male NMRJ mice [4]; cinnarizine 2.5 mg/kg + cyclobarbital-Ca 239 mg/kg, *p <0.05",41.43 min
same,Sleep Time,male NMRJ mice [4]; cinnarizine 2.5 mg/kg + cyclobarbital-Ca + hexobarbital (40 + 30) 225 mg/kg,37.92 min
same,Sleep Time,"male NMRJ mice [4]; cinnarizine 5.0 mg/kg + cyclobarbital-Ca 239 mg/kg, **p <0.01",49.99 min
same,Sleep Time,"male NMRJ mice [4]; cinnarizine 5.0 mg/kg + cyclobarbital-Ca + hexobarbital (40 + 30) 225 mg/kg, *p <0.05",53.22 min
same,Sleep Time,male NMRJ mice [4]; cinnarizine 5 mg/kg + phenobarbital 256 mg/kg,32.85 min
same,Sleep Time,"male NMRJ mice [4]; cinnarizine 10 mg/kg + phenobarbital 256 mg/kg, *p <0.05",43.55 min
same,Sleep Time,"male NMRJ mice [4]; cinnarizine […] + hexobarbital 710 mg/kg, **p <0.01",43.93 min
same,Effect on the action of barbiturates,male NMRJ mice [4],potentiating or enhancing effect
Fc1ccc(C(c2ccc(F)cc2)N2CCN(C/C=C/c3ccccc3)CC2)cc1 [Flunarizine],Antihistaminic properties,[5],only weak antihistaminic properties
same,Sleep Time,male NMRJ mice [4]; flunarizine 0.25 mg/kg + cyclobarbital-Ca 239 mg/kg,39.54 min
same,Sleep Time,"male NMRJ mice [4]; flunarizine 1.0 mg/kg + cyclobarbital-Ca 239 mg/kg, ***p <0.001",62.67 min
same,Sleep Time,male NMRJ mice [4]; flunarizine 1.0 mg/kg + hexobarbital 710 mg/kg,40.44 min
same,Sleep Time,"male NMRJ mice [4]; flunarizine 2.5 mg/kg + cyclobarbital-Ca 239 mg/kg, ***p <0.001",75.15 min
same,Sleep Time,male NMRJ mice [4]; flunarizine 2.5 mg/kg + cyclobarbital-Ca + hexobarbital (40 + 30) 225 mg/kg,33.45 min
same,Sleep Time,male NMRJ mice [4]; flunarizine 2.5 mg/kg + hexobarbital 710 mg/kg,45.17 min
same,Sleep Time,"male NMRJ mice [4]; flunarizine 5.0 mg/kg + hexobarbital 710 mg/kg, ***p <0.001",94.51 min
same,Sleep Time,"male NMRJ mice [4]; flunarizine 10.0 mg/kg + cyclobarbital-Ca + hexobarbital (40 + 30) 225 mg/kg, **p <0.01",56.49 min
same,Sleep Time,"male NMRJ mice [4]; flunarizine 15.0 mg/kg + cyclobarbital-Ca + hexobarbital (40 + 30) 225 mg/kg, ***p <0.001",65.12 min
same,ED50,"male NMRJ mice [4]; flunarizine with cyclobarbital-Ca 239 mg/kg, range (0.29-0.45)",0.38 mg/kg
same,ED50,"male NMRJ mice [4]; flunarizine with cyclobarbital-Ca + hexobarbital (40 + 30) 225 mg/kg, range (6.85-8.30)",7.52 mg/kg
same,ED50,"male NMRJ mice [4]; flunarizine with hexobarbital 710 mg/kg, probit analysis",2.94 mg/kg
same,Dosage to obtain an ED50 with the combination of both barbiturates,male NMRJ mice [4]; in comparison with the individual barbiturates,higher dosages
same,Effect on the action of barbiturates,male NMRJ mice [4],potentiating or enhancing effect
same,Potency for cyclobarbital-calcium,male NMRJ mice [4]; with cyclobarbital-calcium,highest potency
CCC1(C2=CCCCC2)C(=O)NC(=O)NC1=O [Cyclobarbital-Ca],Optimum % of control,tail and corneal reflex; [17],100.0%
same,Optimum Min.,tail and corneal reflex; [17],10 min
same,Onset p.a. % of control,male NMR.tau. mice [2]; [17],100.0%
same,Onset x,male NMR.tau. mice [2]; [17],4.27 min
same,"Effect on onset, in words","male NMR.tau. mice [2]; mouse, in vivo",marked effect
same,Sleep Time,male NMR.tau. mice [3]; [17],24.64 min
same,Sleep Time % of control,male NMR.tau. mice [3]; [17],100.0%
same,Sleep Time,"male NMRJ mice [4]; cyclobarbital-Ca 239 mg/kg alone, cinnarizine series",27.45 min
same,Sleep Time,"male NMRJ mice [4]; cyclobarbital-Ca 239 mg/kg alone, flunarizine series",32.03 min
same,Sleep Time,male NMRJ mice [6]; 200 mg/kg oral,14.01 min
same,Sleep Time,male NMRJ mice [6]; 250 mg/kg oral,34.38 min
same,Sleep Time,male NMRJ mice [6]; 300 mg/kg oral,90 min
same,"Sleep Time, individual animals","male NMRJ mice [6]; 300 mg/kg oral, footnote 1",90 min and 60.5 min and 53.3 min
same,ED50,male NMRJ mice [6],239 mg/kg
CN1C(=O)NC(=O)C(C)(C2=CCCCC2)C1=O (stereo not shown) [Hexobarbital],Optimum % of control,tail and corneal reflex; [18],100.0%
same,Optimum Min.,tail and corneal reflex; [18],10 to 20 min
same,Optimum Reflex,tail and corneal reflex; [18],-1
same,Onset p.a. % of control,male NMR.tau. mice [2]; [18],100.0%
same,Onset x,male NMR.tau. mice [2]; [18],2.89 min
same,Sleep Time,male NMR.tau. mice [3]; [18],35.86 min
same,Sleep Time % of control,male NMR.tau. mice [3]; [18],100.0%
same,Sleep Time,"male NMRJ mice [4]; hexobarbital 710 mg/kg alone, cinnarizine series",32.74 min
same,Sleep Time,"male NMRJ mice [4]; hexobarbital 710 mg/kg alone, flunarizine series",38.78 min
same,Sleep Time,male NMRJ mice [6]; 250 mg/kg oral,3.03 min
same,Sleep Time,male NMRJ mice [6]; 500 mg/kg oral,16.52 min
same,Sleep Time,male NMRJ mice [6]; 750 mg/kg oral,32.53 min
same,Sleep Time,male NMRJ mice [6]; 1000 mg/kg oral,56.08 min
same,ED50,male NMRJ mice [6],710 mg/kg
CCC1(c2ccccc2)C(=O)NC(=O)NC1=O [Phenobarbital],Sleep Time,"male NMRJ mice [4]; phenobarbital 256 mg/kg alone, cinnarizine series",22.34 min
same,Sleep Time,male NMRJ mice [6]; 200 mg/kg oral,4.29 min
same,Sleep Time,male NMRJ mice [6]; 250 mg/kg oral,27.52 min
same,Sleep Time,male NMRJ mice [6]; 300 mg/kg oral,49.06 min
same,Sleep Time,male NMRJ mice [6]; 400 mg/kg oral,49.28 min
same,ED50,male NMRJ mice [6],256 mg/kg
OCC(S)CS (stereo not shown) [Dimercaprol (BAL)],Decomposition of pentobarbital,[7],checks the decomposition of pentobarbital
CCCC(C)(COC(N)=O)COC(N)=O [Meprobamate],Effect on barbiturates,[1],pontentiating or enhancing effect on barbiturates
